pIC50: −log10 of the molar value. Where two headings read alike, the source gives them in different places.
Legend:
[1] = tested on: MCF-7/Adr drug-resistant human mammary carcinoma cells; experiment: Drug resistance, viable cell number (Coulter Counter); type: cell-based
Experimental: (§1) FIG. 15A is a line graph showing that MCF-7/Adr drug-resistant human mammary carcinoma cells grown in culture with hyaluronan oligomers are sensitized to doxorubicin. MCF-7/Adr cells were obtained from MCF-7 cells by being selected for drug resistance by exposure to doxorubicin. Cells were grown for 24 h in 24-well plates in RPMI 1640 medium containing Glutamex 1 plus 10% fetal bovine serum at 37° in 5% CO2. Various concentrations of doxorubicin (doxo) were then added and the cells incubated for another 72 h, followed by a further 24 h in the presence or absence of 100 μg/ml hyaluronan oligomers (o-HA). The oligomers were a mixed population of 3-8 repeating disaccharides in length. The cells were then harvested and the number of viable cells was determined in a Coulter Counter.
FIG. 18 is a set of line graphs showing a resulting cell number, on the ordinate, following drug treatment with doxorubicin, concentration (log) in nM on the abscissa, showing restoration of drug sensitivity (inhibition of drug resistance) by HA oligomers, soluble hyaluronan-binding decoys, and CD44 siRNA, using derivatives of MCF-7 cells as in FIG. 17 above.
Therefore, the effect of co-treatment with hyaluronan oligomers on drug resistance was examined in an established system, i.e. MCF-7/Adr human mammary carcinoma cells that have been selected for resistance to doxorubicin (Fairchild, C. R., et al., Cancer Res 47, 5141-8, 1987). First, the effect of hyaluronan oligomers on resistance to doxorubicin in the MCF-7/Adr cells versus the relatively drug-sensitive, parental MCF-7 cell line was compared.

[2] = tested on: MCF-7 human mammary carcinoma cells; experiment: as above; type: cell-based
Experimental: as §1

[3] = tested on: MCF-7 cells infected with Has2, emmprin or β-galactosidase adenovirus; experiment: Doxorubicin resistance of recombinant adenovirus-infected MCF-7 cells; type: cell-based, human; settings: for pIC50: Homo sapiens, MCF7, 48 h, 48 h
Experimental: Untreated MCF-7 cells or cells infected overnight with a recombinant Has2 adenovirus or a control β-galactosidase adenovirus (β-gal) were washed, then treated in culture for 48 h with 1-1000 nM doxorubicin, followed by analysis of cell number.
Cells were treated in culture for 48 h with 10-1000 nM doxorubicin in the presence or absence of 100 μg/ml o-HA and analyzed as in FIG. 16A.
FIG. 16C is a line graph showing doxorubicin response of untreated MCF-7 cells or cells infected overnight with a recombinant emmprin adenovirus or a control β-galactosidase adenovirus (β-gal) that were treated as described in FIG. 16B.
Emmprin adenovirus-infected MCF-7 cells or control β-galactosidase adenovirus (β-gal)-infected cells were treated in the presence or absence of 100 μg/ml hyaluronan oligomers (o-HA) as described in FIG. 16B. The results in FIGS. 16A-D are expressed as the means (±S.D) of three independent experiments performed in triplicate.

[4] = tested on: MDA-MB231 human mammary carcinoma cells; experiment: Methotrexate resistance, cell number in monolayer culture; type: cell-based
Experimental: MDA-MB231 human mammary carcinoma cells were treated with increasing concentrations of methotrexate (MTX) in the presence or absence of 100 μg/ml HA oligomers. Cells were grown in monolayer culture in 10% fetal bovine serum and cell number measured in a coulter counter. The MTT assay for viable cells (Denizot, F., et al. J Immunol Methods, 89: 271-277, 1986) gave similar results.
Effect of addition of hyaluronan oligomers on resistance of MDA-MB231 human breast cancer cells to treatment with methotrexate was assessed.

[5] = MCF-7/Adr + o-HA (100 μg/ml hyaluronan oligomers)
[6] = MCF-7 + o-HA (100 μg/ml hyaluronan oligomers)
[7] = Homo sapiens, NCI/ADR-RES, MCF-7/Adr cells, drug alone
[8] = Homo sapiens, MCF7, MCF-7 cells, drug alone

O=NN(CCCl)C(=O)NCCCl [BCNU, 1,3 bis(2-chloroethyl)-1-nitrosurea] was tested, and the pIC50 [1, 5] was 6.74, the pIC50 ([1]; MCF-7/Adr cells, drug alone) was 4.85 and the pIC50 [2, 6] was 5.92. It also gave a pIC50 ([2]; MCF-7 cells, drug alone) of 6.30.

With COc1cccc2c1C(=O)c1c(O)c3c(c(O)c1C2=O)C[C@@](O)(C(=O)CO)C[C@@H]3O[C@H]1C[C@H](N)[C@H](O)[C@H](C)O1 [Doxorubicin] the pIC50 [1, 7] was 5.66, the pIC50 [1, 5] was 7.40 and the pIC50 [2, 8] was 7.52. For the same molecule, the pIC50 [2, 6] was 7.40, the “increase in resistance to doxorubicin induced by increased hyaluronan production” value ([3]; HAS2 adenovirus-infected MCF-7 versus controls) was 10-12 fold and the pIC50 ([3]; Has2 adenovirus-infected MCF-7 cells) was 6.68. It also gave a pIC50 ([3]; uninfected MCF-7 cells) of 7.74 and a pIC50 ([3]; β-galactosidase adenovirus-infected MCF-7 cells) of 7.70.

CN(Cc1cnc2nc(N)nc(N)c2n1)c1ccc(C(=O)N[C@@H](CCC(=O)O)C(=O)O)cc1 [Methotrexate] showed a pIC50 ([4]; MDA-MB-231, MB231 cells, with 100 μg/ml hyaluronan oligomer (FIG. 12), read-out: IC50) of ~8.00, a pIC50 ([4]; MDA-MB-231, MB231 cells, without hyaluronan oligomer (FIG. 12), read-out: IC50) of ~6.00 and a pIC50 ([4]; MDA-MB-231, MDA-MB231 + o-HA (100 μg/ml hyaluronan oligomers), read-out: IC50 values) of 8.22. It also gave a pIC50 ([4]; MDA-MB-231, MDA-MB231 cells, drug alone, read-out: IC50 values) of 6.10 and a pIC50 [2, 8] of 7.70.

Molecule CC(=O)O[C@H]1C(=O)[C@@]2(C)[C@H]([C@H](OC(=O)c3ccccc3)[C@]3(O)C[C@H](OC(=O)[C@H](O)[C@@H](NC(=O)c4ccccc4)c4ccccc4)C(C)=C1C3(C)C)[C@]1(OC(C)=O)CO[C@@H]1C[C@@H]2O [Taxol] has a pIC50 [1, 7] of 6.15, a pIC50 [1, 5] of 7.22 and a pIC50 [2, 8] of 6.46.

With CC[C@]1(O)C[C@H]2CN(CCc3c([nH]c4ccccc34)[C@@](C(=O)OC)(c3cc4c(cc3OC)N(C=O)[C@H]3[C@@](O)(C(=O)OC)[C@H](OC(C)=O)[C@]5(CC)C=CCN6CC[C@]43[C@@H]65)C2)C1 [Vincristine] the pIC50 [1, 7] was 6.70, the pIC50 [1, 5] was 7.70 and the pIC50 [2, 8] was 7.52.
